Results: ChEMBL document CHEMBL1201862, “PubChem BioAssay data set” (2004)
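Step 1: Grow cells in 96-well plates. Step 2: Expose to compound for 48 hours at 5 concentrations. Step 3: Interpolate endpoints linearly; if unreached, use highest concentration. Here, GI50 denotes the concentration required for 50% inhibition of growth.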 Calls of active or inactive are those of the source. Cut-off read from the data, not from the text of the source: active = GI50 up to about 1.1 µM and inactive = higher.

Key:
Test in all cases: NCI anticancer screen, dose series, 48 h
[1] = tested on: HOP-62
[2] = tested on: K562
[3] = tested on: SK-OV-3
[4] = tested on: SW-620
[5] = tested on: UACC-257
[6] = tested on: SN12C
[7] = tested on: NCI-H23
[8] = tested on: SF-539
[9] = tested on: A498
[10] = tested on: U-251
[11] = tested on: SF-295
[12] = tested on: NCI-H460
[13] = tested on: COLO 205
[14] = tested on: Malme-3M
[15] = tested on: HT-29
[16] = tested on: HL-60
[17] = tested on: SK-MEL-28
[18] = tested on: CCRF-CEM
[19] = tested on: HCT-15
[20] = tested on: Hs-578T

Row | Structure (SMILES) | GI50 [1] | GI50 [2] | GI50 [3] | GI50 [4] | GI50 [5] | GI50 [6] | GI50 [7] | GI50 [8] | GI50 [9] | GI50 [10] | GI50 [11] | GI50 [12] | GI50 [13] | GI50 [14] | GI50 [15] | GI50 [16] | GI50 [17] | GI50 [18] | GI50 [19] [µM] | GI50 [20]
1 | CC(=O)c1c(C)[n+]([O-])c2cc(C)c(C)cc2[n+]1[O-] | > 100 µM (inactive) | > 100 µM (inactive) | > 100 µM (inactive) | > 100 µM (inactive) | > 100 µM (inactive) | > 100 µM (inactive) | > 100 µM (inactive) | > 100 µM (inactive) | > 100 µM (inactive) | > 100 µM (inactive) | > 100 µM (inactive) | > 100 µM (inactive) | > 100 µM (inactive) | > 100 µM (inactive) | 65.8 µM (inactive) | > 100 µM (inactive) | > 100 µM (inactive) | > 100 µM (inactive) | > 100 | –
2 | O=C(O)c1cc2ccccc2c2c1C(=O)c1ccccc1-2 | 20.7 µM (inactive) | > 100 µM (inactive) | 56.6 µM (inactive) | > 100 µM (inactive) | > 100 µM (inactive) | 75 µM (inactive) | > 100 µM (inactive) | > 100 µM (inactive) | – | > 100 µM (inactive) | 56 µM (inactive) | > 100 µM (inactive) | > 100 µM (inactive) | 83.8 µM (inactive) | > 100 µM (inactive) | > 100 µM (inactive) | 58.3 µM (inactive) | > 100 µM (inactive) | 92 | > 100 µM (inactive)
3 | COc1cc(N(Cc2ccc3oc(=O)c(-c4ccccc4)nc3c2)Cc2ccc3oc(=O)c(-c4ccccc4)nc3c2)cc(OC)c1OC | > 10 µM (inactive) | > 10 µM (inactive) | > 10 µM (inactive) | > 10 µM (inactive) | > 10 µM (inactive) | > 10 µM (inactive) | > 10 µM (inactive) | > 10 µM (inactive) | – | > 10 µM (inactive) | > 10 µM (inactive) | > 10 µM (inactive) | > 10 µM (inactive) | – | > 10 µM (inactive) | > 10 µM (inactive) | > 10 µM (inactive) | > 10 µM (inactive) | > 10 | > 10 µM (inactive)
4 | N#CC(NNC(=O)c1c(Cl)c(Cl)c(Cl)c(Cl)c1-c1nc2cc(C(=O)c3ccccc3)ccc2[nH]1)c1ccccc1 (stereo not given) | 7.82 µM (inactive) | 3.24 µM (inactive) | 13 µM (inactive) | 8.87 µM (inactive) | 9.98 µM (inactive) | 6.61 µM (inactive) | 7.45 µM (inactive) | 3.18 µM (inactive) | – | 15.8 µM (inactive) | 3.68 µM (inactive) | – | 10 µM (inactive) | 8.57 µM (inactive) | 8.53 µM (inactive) | 4.69 µM (inactive) | 17.8 µM (inactive) | 4.02 µM (inactive) | 4.74 | 6.78 µM (inactive)
5 | COC(=O)c1cc(Br)c(C(=O)C(Cl)(Cl)Cl)[nH]1 | > 100 µM (inactive) | > 100 µM (inactive) | > 100 µM (inactive) | > 100 µM (inactive) | > 100 µM (inactive) | > 100 µM (inactive) | > 100 µM (inactive) | > 100 µM (inactive) | > 100 µM (inactive) | > 100 µM (inactive) | > 100 µM (inactive) | > 100 µM (inactive) | > 100 µM (inactive) | > 100 µM (inactive) | > 100 µM (inactive) | > 100 µM (inactive) | > 100 µM (inactive) | > 100 µM (inactive) | > 100 | –
6 | O=[N+]([O-])c1ccc(C2N3CCCCC3[C@H]3CCCCN23)cc1 (stereo not given in full) | > 100 µM (inactive) | > 100 µM (inactive) | > 100 µM (inactive) | > 100 µM (inactive) | > 100 µM (inactive) | > 100 µM (inactive) | > 100 µM (inactive) | > 100 µM (inactive) | > 100 µM (inactive) | > 100 µM (inactive) | > 100 µM (inactive) | > 100 µM (inactive) | > 100 µM (inactive) | > 100 µM (inactive) | > 100 µM (inactive) | > 100 µM (inactive) | > 100 µM (inactive) | > 100 µM (inactive) | > 100 | –
7 | O=Cn1c2ccccc2c2ccccc21 | > 100 µM (inactive) | > 100 µM (inactive) | > 100 µM (inactive) | > 100 µM (inactive) | > 100 µM (inactive) | > 100 µM (inactive) | > 100 µM (inactive) | > 100 µM (inactive) | > 100 µM (inactive) | > 100 µM (inactive) | > 100 µM (inactive) | > 100 µM (inactive) | > 100 µM (inactive) | > 100 µM (inactive) | – | > 100 µM (inactive) | > 100 µM (inactive) | > 100 µM (inactive) | > 100 | –
